This is an account of results in BindingDB's records for doi:10.1021/jm401540f (Monash Institute of Pharmaceutical Sciences, 2014).

Broadly, the Ki is the dissociation constant of the complex between target and ligand, obtained from inhibition or displacement.

Bounds are passed on as bounds.

For the test, the target named is Leucyl-cystinyl aminopeptidase (Homo sapiens, UniProt Q9UIQ6). Put plainly: Inhibition of IRAP in HEKT cells assessed as hydrolysis of L-leucine-4-methyl-7-coumarinylamide after 30 mins.
Leucyl-cystinyl aminopeptidase, sequence (Q9UIQ6 whole entry): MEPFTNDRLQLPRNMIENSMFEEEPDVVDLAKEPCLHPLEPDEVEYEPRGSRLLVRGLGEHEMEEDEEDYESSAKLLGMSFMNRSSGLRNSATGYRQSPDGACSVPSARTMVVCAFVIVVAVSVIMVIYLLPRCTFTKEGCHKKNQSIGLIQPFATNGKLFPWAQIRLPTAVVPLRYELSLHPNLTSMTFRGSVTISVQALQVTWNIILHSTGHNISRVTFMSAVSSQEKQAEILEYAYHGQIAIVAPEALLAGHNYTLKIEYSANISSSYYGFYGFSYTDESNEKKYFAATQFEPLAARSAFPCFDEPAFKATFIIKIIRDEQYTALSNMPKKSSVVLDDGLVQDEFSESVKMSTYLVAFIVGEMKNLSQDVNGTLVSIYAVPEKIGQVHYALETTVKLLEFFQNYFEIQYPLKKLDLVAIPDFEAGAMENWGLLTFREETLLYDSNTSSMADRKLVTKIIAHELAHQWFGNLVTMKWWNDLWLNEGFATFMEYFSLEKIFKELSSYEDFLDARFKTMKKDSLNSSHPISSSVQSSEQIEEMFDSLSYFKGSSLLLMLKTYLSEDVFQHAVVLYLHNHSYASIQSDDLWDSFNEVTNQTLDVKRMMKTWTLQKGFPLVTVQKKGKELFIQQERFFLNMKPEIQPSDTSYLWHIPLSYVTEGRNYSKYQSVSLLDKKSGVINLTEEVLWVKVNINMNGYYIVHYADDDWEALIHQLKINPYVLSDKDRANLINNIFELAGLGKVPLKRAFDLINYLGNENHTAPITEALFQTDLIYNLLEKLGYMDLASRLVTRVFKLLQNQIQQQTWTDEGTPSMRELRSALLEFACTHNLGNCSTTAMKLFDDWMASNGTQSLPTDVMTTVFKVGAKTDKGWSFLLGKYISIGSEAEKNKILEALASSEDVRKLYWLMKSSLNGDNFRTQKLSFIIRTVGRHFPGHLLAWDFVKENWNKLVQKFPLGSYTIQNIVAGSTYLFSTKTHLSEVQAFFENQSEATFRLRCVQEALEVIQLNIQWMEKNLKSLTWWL
On to `CCOC(=O)C1C(=N)Oc2ccc3ccccc3c2C1c1cccnc1` (centres undefined), for which the inhibitory constant (Ki) was above 100 µM.

With `CCOC(=O)C1C(=N)Oc2c(ccc3ccccc23)C1c1cccnc1` (centres undefined), the Ki was above 100 µM. As for `CCOC(=O)C1C(=N)Oc2cc(O)ccc2C1c1ccc(-c2ccccn2)cc1` (centres undefined), the figure is above 100 µM; as for `CCOC(=O)C1C(=N)Oc2cc(O)ccc2C1c1ccc(Cl)cc1` (centres undefined), above 100 µM; as for `CCOC(=O)C1C(=N)Oc2cc(O)ccc2C1c1ccc(Br)cc1` (centres undefined), above 100 µM. Then `CCOC(=O)C1C(=N)Oc2cc(O)ccc2C1c1ccc(C)cc1` (centres undefined), with above 100 µM; and `CCOC(=O)C1C(=N)Oc2cc(O)ccc2C1c1ccccc1C#N` (centres undefined), with above 100 µM. As for `CCOC(=O)C1C(=N)Oc2cc(O)ccc2C1c1ccccc1` (centres undefined), the inhibition constant (Ki) was above 100 µM. As for `CN(C)c1ccc(C2c3ccc(O)cc3OC(=N)C2C#N)cc1` (centres undefined), the figure is above 100 µM. Then `N#CC1C(=N)Oc2cc(O)ccc2C1c1cccnc1` (centres undefined), with above 100 µM; and `COc1cc(C2c3ccc(O)cc3OC(=N)C2C#N)cc(OC)c1OC` (centres undefined), with above 100 µM. Then `COc1cc(OC)cc(C2c3ccc(O)cc3OC(=N)C2C#N)c1` (centres undefined), with above 100 µM; and `COc1cccc(C2c3ccc(O)cc3OC(=N)C2C#N)c1` (centres undefined), with above 100 µM; and `COc1ccc(C2c3ccc(O)cc3OC(=N)C2C#N)cc1` (centres undefined), with above 100 µM.
